From article PMC8776094, “Reactive Oxygen Species Production Is Responsible for Antineoplastic Activity of Osmium, Ruthenium, Iridium and Rhodium Half-Sandwich Type Complexes with Bidentate Glycosyl Heterocyclic Ligands in Various Cancer Cell Models” (International Journal of Molecular Sciences, 2022)

Key:
[1] = tested on: A2780 ovarian cancer cells; experiment: SRB assay, 48 h, cytostasis, A2780; format: cell-based; settings: for A2780 Max. Inh. (%): ND = not detected; for cytostatic activity on A2780 cells in SRB assay (in words): 48 h treatment
Description: (§1) The compounds were tested between 0.001694 and 33.3333 µM, using a 4-hour-long MTT test to assess rapid toxicity and a 48-hour-long SRB assay to assess the long-term effects of the inhibition of proliferation (cytostasis). The MTT assay assesses the activity of mitochondrial complex I and detects rapid, direct toxicity, as well as indicating apoptosis and necrosis. The SRB assay measures the total protein content that is proportional to cell numbers; therefore, the assay can detect changes in cell numbers and can thus be used as a readout for cell proliferation. The SRB assay was performed after 48 h of treatment (with the exception of L428 cells, which were tested for 96 h due to their slower proliferation rate). In this setting, the SRB assay informs us of long-term changes to cell proliferation. We assessed the maximal inhibition within that concentration range, and descriptive statistics were performed. We performed a one-way ANOVA, followed by the Kruskal–Wallis test, regardless of the normal or non-normal distribution of the data. Due to the large number of significance values, the results of the significance calculations are provided in an Excel spreadsheet at https://figshare.com/s/28d14597d5041f08eb08 (accessed on 6 January 2022), among other primary data of the study. Where possible, nonlinear regression was performed on the curves to determine the IC50 values ((inhibitor) vs. response—variable slope (four parameters) method with Graphpad v8.0.1). […] In Table 5, we added the IC50 values that we determined for a set of 4 active ruthenium half-sandwich complexes we identified previously, to be used in subsequent structure-activity relationship (SAR) analyses.
(§2) A2780 cells were cultured in RMPI 1640 medium, supplemented with 10% fetal calf serum, 2 mM glutamine, and 1% penicillin-streptomycin.
(§3) The assay was performed similarly to the method used in [73]. Cells were seeded in 96-well plates the day before the assay. Cells were treated with the compounds for 48 h, with the exception of L428, where 96 h of treatment was applied. Cells were fixed with 10% trichloroacetic acid (TCA). Fixed cells were washed in distilled water 3 times, followed by staining with SRB (0.4 m/V% dissolved in 1% acetic acid) for 10 min. The stained cells were washed in 1% acetic acid 5 times; the acetic acid was removed, and the cells were left to dry. Protein-bound SRB was released by adding 100 µL 10 mM Tris base. Plates were measured in a plate photometer (Thermo Scientific Multiscan GO spectrophotometer, Waltham, MA, USA) at 540 nm. On each plate, wells were designed to contain untreated cells. In calculations, the readings for these wells were considered as 1 and all readings were expressed relative to these values.
(§4) Statistical analysis was performed using the 8.0.1 version of Graphpad Prism. Values were tested for normal distribution, using the d’Agostino and Pearson normality test. When necessary, values were log-normalized or were normalized using the Box-Cox normalization method or using a two-step transformation, as indicated in the figure captions. Nonlinear regression was performed using the built-in “[Inhibitor] vs. Response—Variable slope (four parameters), least-square fit” utility of Graphpad, yielding the IC50 and Hill slope values.

[2] = Determination of the distribution coefficients (logD), n-octanol/PBS; format: physicochemical; settings: n-octanol / PBS pH = 7.40, rt
Description: Before starting the experiments, n-octanol was saturated with an aqueous PBS solution (pH = 7.40) and vice versa. A solution of the appropriate complex (approximately 0.2–0.3 mg) in a mixture of 2.50 mL pre-saturated n-octanol and 2.50 mL pre-saturated PBS buffer was made, and the resulting mixture was then vigorously stirred for 3 days at rt. Based on our previous NMR stability experiments, this time is long enough to reach equilibrium among the various ionic complex species. Due to the lipophilic/hydrophilic features of the complexes, those with benzoyl protection could primarily be found in the n-octanol, while the complexes with O-peracetylated and O-deprotected ligands were in the aqueous PBS phase. The corresponding separated solution was centrifuged (ScanSpeed 406G instrument, 4000 RPM for 5 min) and the absorption of the ”stock solution” was determined (VWR UV-1600PC Spectrophotometer, 270–420 nm). Then, 2.00 mL of the stock solution was vigorously stirred with 16.00 mL of pre-saturated n-octanol or PBS solution. After one day had passed, the phases were separated, centrifuged, and the absorption of the solution was measured again. From the absorption difference of the stock solutions, the distribution coefficient (D) was determined using previously described formulae [71].

[3] = tested on: ID8 ovarian cancer cell line; experiment: MTT reduction assay, 4 h, rapid toxicity, ID8; format: cell-based; settings: MTT assay, 4 h treatment; ND = not detected or cannot be calculated
Description: as §1
(§5) ID8 cells were cultured in a high-glucose DMEM (4.5 g/L glucose) medium, supplemented with 4% fetal calf serum, 2 mM glutamine, 1% penicillin-streptomycin, and 1% ITS supplement (I3146).
(§6) The MTT reduction assay measures the activity of mitochondrial complex I and can be used to detect apoptosis and necrosis. The assay was performed similarly to the method used in [72]. Briefly, cells were plated in 96-well plates the day before the assay. Cells were treated with the compounds for 4 h, then MTT was added at 0.5 mg/mL final concentration and the cells were incubated at 37 °C in a cell incubator. The culture media were removed and the reduced MTT dye was dissolved in dimethyl-sulfoxide (DMSO) and plates were measured in a plate photometer (Thermo Scientific Multiscan GO spectrophotometer, Waltham, MA, USA) at 540 nm. On each plate, wells were designed to contain untreated/vehicle-treated cells. In the calculations, the readings for these wells were considered as 1 and all readings were expressed relative to these values.

[4] = tested on: Capan2, a pancreatic adenocarcinoma cell line; experiment: SRB assay, 48 h, cytostasis, Capan2; format: cell-based; settings: SRB assay, ND = not detected
Excerpt: We turned next to assessing whether the cytostatic activity of Os-3, Os-4, Os-5, Os-6 and Ir-6 complexes is specific for ovarian cancer cell lines or if they may be active on other cell lines. To that end, we tested the complexes on another carcinoma cell line (Capan2, a pancreatic adenocarcinoma cell line), on a sarcoma cell line (Saos, an osteosarcoma cell line) and on a lymphoma cell line (L428, a Hodgkin’s lymphoma cell line).
Capan2 cells were maintained in MEM, 10% fetal bovine serum, 1% penicillin/streptomycin, and 2 mM glutamine.
as §3, §4
Here, 1.5 × 10^3 Capan2, 3 × 10^3 Saos cells and 10^4 L428 cells were plated onto 96-well plates. Capan2 and Saos cells were treated with the compounds in the concentrations indicated for 48 h for an SRB assay. L428 cells were treated with the compounds in the concentrations indicated for 96 h, then cells were counted using conventional microscopy and a Burker chamber. Data are represented as average ± SD, from three biological replicates; individual assays were performed in duplicate. Values were normalized for vehicle-treated cells; the absorbance for vehicle-treated cells is equal to 1. A one-way ANOVA, followed by a Kruskal–Wallis test, was performed individually for each compound. The results of the statistical analysis are presented in an Excel spreadsheet at https://figshare.com/s/28d14597d5041f08eb08 (accessed on 6 January 2022). Nonlinear regression was performed on the data.

[5] = tested on: ID8 ovarian cancer cell line; experiment: SRB assay, 48 h, cytostasis, ID8; format: cell-based; settings: for ID8 Max. Inh. (%): SRB assay, 48 h, ND = not detected; for cytostatic activity on ID8 cells, SRB assay (in words): 48 h treatment
Description: as §1, §5, §3, §4

[6] = tested on: A2780 ovarian cancer cells; experiment: MTT reduction assay, 4 h, rapid toxicity, A2780; format: cell-based; settings: 4 h treatment
Description: as §1, §2, §6

Compound	A2780 Max. Inh. (%) ([1]; SRB assay, 48 h)	LogD [2]	also measured
Cc1c(C)c(C)[c-](C)c1C.F[P-](F)(F)(F)(F)F.O=C(OCC1OC(c2noc(-c3ccccn3)n2)C(OC(=O)c2ccccc2)C(OC(=O)c2ccccc2)C1OC(=O)c1ccccc1)c1ccccc1.[Cl][Ir+2] (mixture of isomers) [Ir-1]	35.13%	2.87	
Cc1c(C)c(C)[c-](C)c1C.F[P-](F)(F)(F)(F)F.OCC1OC(c2noc(-c3ccccn3)n2)C(O)C(O)C1O.[Cl][Ir+2] (mixture of isomers) [Ir-2]	36.38%	−1.15	
Cc1c(C)c(C)[c-](C)c1C.F[P-](F)(F)(F)(F)F.O=C(OCC1OC(c2nnc(-c3ccccn3)o2)C(OC(=O)c2ccccc2)C(OC(=O)c2ccccc2)C1OC(=O)c1ccccc1)c1ccccc1.[Cl][Ir+2] (mixture of isomers) [Ir-3]	69.25%	1.46	Maximum Inhibition (%) ID8 [3]: 26.11%; cytostatic activity on A2780 cells in SRB assay (in words) [1]: mild; Capan2 Max. Inh. (%) [4]: 27.62%
Cc1c(C)c(C)[c-](C)c1C.F[P-](F)(F)(F)(F)F.O=C(OCC1OC(c2nnc(-c3ccccn3)o2)C(OC(=O)c2ccccc2)C(OC(=O)c2ccccc2)C1OC(=O)c1ccccc1)c1ccccc1.[Cl][Ir+2] (mixture of isomers) [Ir-4]	32.45%	1.46	
Cc1c(C)c(C)[c-](C)c1C.F[P-](F)(F)(F)(F)F.O=C(OC1COC(c2nnc(-c3ccccn3)o2)C(OC(=O)c2ccccc2)C1OC(=O)c1ccccc1)c1ccccc1.[Cl][Ir+2] (mixture of isomers) [Ir-5]	45.45%	1.80	ID8 Max. Inh. (%) [5]: 53.15%
CC(=O)OCC1OC(c2nnc(-c3ccccn3)o2)C(OC(C)=O)C(OC(C)=O)C1OC(C)=O.Cc1c(C)c(C)[c-](C)c1C.F[P-](F)(F)(F)(F)F.[Cl][Ir+2] (mixture of isomers) [Ir-7]	26.91%	−0.75	
Cc1c(C)c(C)[c-](C)c1C.F[P-](F)(F)(F)(F)F.OCC1OC(c2nnc(-c3ccccn3)o2)C(O)C(O)C1O.[Cl][Ir+2] (mixture of isomers) [Ir-8]		−1.60	
Cc1c(C)c(C)[c-](C)c1C.F[P-](F)(F)(F)(F)F.OCC1OC(c2nnc(-c3ccccn3)o2)C(O)C(O)C1O.[Cl][Ir+2] (mixture of isomers) [Ir-9]	21.29%	−1.47	
Cc1c(C)c(C)[c-](C)c1C.F[P-](F)(F)(F)(F)F.OC1COC(c2nnc(-c3ccccn3)o2)C(O)C1O.[Cl][Ir+2] (mixture of isomers) [Ir-10]	23.12%	−1.56	
CC(=O)OCC1OC(n2cc(-c3ccccn3)nn2)C(OC(C)=O)C(OC(C)=O)C1OC(C)=O.Cc1c(C)c(C)[c-](C)c1C.F[P-](F)(F)(F)(F)F.[Cl][Ir+2] (mixture of isomers) [Ir-11]	20.26%		cytostatic activity on A2780 cells in SRB assay (in words) [1]: biologically inactive
Cc1c(C)c(C)[c-](C)c1C.F[P-](F)(F)(F)(F)F.OCC1OC(n2cc(-c3ccccn3)nn2)C(O)C(O)C1O.[Cl][Ir+2] (mixture of isomers) [Ir-12]	19.11%		cytostatic activity on A2780 cells in SRB assay (in words) [1]: biologically inactive
Cc1c(C)c(C)[c-](C)c1C.F[P-](F)(F)(F)(F)F.O=C(OCC1OC(c2nnc(-c3ccccn3)o2)C(OC(=O)c2ccccc2)C(OC(=O)c2ccccc2)C1OC(=O)c1ccccc1)c1ccccc1.[Cl][Rh+2] (mixture of isomers) [Rh-3]	39.86%	1.60	
Cc1c(C)c(C)[c-](C)c1C.F[P-](F)(F)(F)(F)F.O=C(OCC1OC(c2nnc(-c3ccccn3)o2)C(OC(=O)c2ccccc2)C(OC(=O)c2ccccc2)C1OC(=O)c1ccccc1)c1ccccc1.[Cl][Rh+2] (mixture of isomers) [Rh-4]	35.30%	1.64	
Cc1c(C)c(C)[c-](C)c1C.F[P-](F)(F)(F)(F)F.O=C(OC1COC(c2nnc(-c3ccccn3)o2)C(OC(=O)c2ccccc2)C1OC(=O)c1ccccc1)c1ccccc1.[Cl][Rh+2] (mixture of isomers) [Rh-5]	51.28%	1.8	Maximum Inhibition (%) ID8 [3]: 21.87%; cytostatic activity on ID8 cells, SRB assay (in words) [5]: mild cytostatic activity; ID8 Max. Inh. (%) [5]: 75.25%
Cc1c(C)c(C)[c-](C)c1C.F[P-](F)(F)(F)(F)F.O=C(OCC1OC(n2cc(-c3ccccn3)nn2)C(OC(=O)c2ccccc2)C(OC(=O)c2ccccc2)C1OC(=O)c1ccccc1)c1ccccc1.[Cl][Rh+2] (mixture of isomers) [Rh-6]	59%	1.85	Maximum Inhibition (%) ID8 [3]: 28.28%; IC50 ([1]; SRB assay, 48 h): 25.3 µM; cytostatic activity on ID8 cells, SRB assay (in words) [5]: mild cytostatic activity; ID8 Max. Inh. (%) [5]: 43.70%
O=C(OC[C@H]1O[C@@H](c2noc(-c3ccccn3)n2)[C@H](OC(=O)c2ccccc2)[C@@H](OC(=O)c2ccccc2)[C@@H]1OC(=O)c1ccccc1)c1ccccc1 [Complex L-1, 3-(2′,3′,4′,6′-Tetra-O-benzoyl-β-D-glucopyranosyl)-5-(pyridin-2-yl)-1,2,4-oxadiazole]			toxicity on A2780 cells in short-term MTT assay (in words) [6]: practically inactive; cytostatic activity on A2780 cells in SRB assay (in words) [1]: practically inactive
dichloro(η^6-p-cymene)osmium(II) dimer [Os-dimer]			cytostatic activity on A2780 cells in SRB assay (in words) [1]: inactive; cytostatic activity on ID8 cells, SRB assay (in words) [5]: inactive
